We go through three compounds from ChEMBL document CHEMBL5727360, “BCL-2 inhibitors” (2019).

As usually defined, the IC50 is the concentration needed to halve the response being measured.

Bounds are passed on as bounds.

The assay concerns the target Apoptosis regulator Bcl-2 (Homo sapiens, UniProt P10415). Description: Bcl-2 Competition Binding (Fluorescence Polarization) Assay: The fluorescence-labeled 23 amino acid peptide BH3 was purchased from CalBiochem ([…], SEQ ID NO: 1). An unbound Fluorescein labeled BH3 peptide emits random light with respect to the plane of polarization plane of excited light, resulting in a lower polarization degree (mP) value. When the peptide is bound to Bcl-2, the complex tumble slower and the emitted light can have a higher level of polarization, resulting in a higher mP value. This binding assay was performed in 96-well plate and with each assay contained 15 and 30 nM of labeled peptide and purified Bcl-2 protein (purchased from R&D Systems, Inc). The assay buffer contained 20 mM Hepes (pH 7.0), 50 mM KCl, 5 mM MgCl2, 20 mM Na2MoO4, 0.1 mg/ml Bovine Gamma Globulin and 0.01% NP40. Compounds were diluted in DMSO and added to the final assay with concentration range from 20 uM to 2 nM. The polarization degree (mP) value was determined by BioTek Synergy II with background subtraction after 3 hours of incubation at room temperature. IC50 was calculated using Prism software with sigmoidal dose-response curve fitting. ABT-737 was used as reference compound. Such assays, carried out with a range of doses of test compounds, allow the determination of an approximate IC50 value.

Sequence of Apoptosis regulator Bcl-2 (P10415 whole entry): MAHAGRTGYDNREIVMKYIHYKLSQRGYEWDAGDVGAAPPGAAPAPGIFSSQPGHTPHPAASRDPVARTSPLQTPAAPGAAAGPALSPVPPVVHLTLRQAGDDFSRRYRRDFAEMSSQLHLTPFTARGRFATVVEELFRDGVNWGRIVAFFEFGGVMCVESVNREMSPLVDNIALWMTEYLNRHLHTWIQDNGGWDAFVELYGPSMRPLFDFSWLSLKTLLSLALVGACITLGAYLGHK

Take `CC1(C)CCC(CN2CCN(c3ccc(C(=O)NS(=O)(=O)c4ccc(NC5CCN(C6CCOCC6)CC5)c([N+](=O)[O-])c4)c(-n4ncc5nc6[nH]ccc6cc54)c3)CC2)=C(c2ccc(Cl)cc2)C1`: the IC50 is < 10 nM. As for `CN1CCC(F)(COc2ccc(S(=O)(=O)NC(=O)c3ccc(N4CCN(CC5=C(c6ccc(Cl)cc6)CC(C)(C)CC5)CC4)cc3-n3ncc4nc5[nH]ccc5cc43)cc2[N+](=O)[O-])CC1`, the figure is < 10 nM; as for `CC1(C)CCC(CN2CCN(c3ccc(C(=O)NS(=O)(=O)c4ccc(NCCCN5CCOCC5)c([N+](=O)[O-])c4)c(-n4ncc5nc6[nH]ccc6cc54)c3)CC2)=C(c2ccc(Cl)cc2)C1`, < 10 nM.
